Data: patent US20110236504A1, “VERSATILE DISINFECTANT” (priority 2008, published 2011)
“And” between values parts separate entries of the source, which are not always exact repeats. Identical values can stand only once. Like-named read-outs stand apart in the source and are kept apart here.

Columns and labels:
[1] = tested on: viable bacteria in sputum; assay: Sterilization effect on specimen: sputum; conditions: Sputum 2 × 10^9/g
[2] = tested on: intestinal bacteria in feces; assay: Sterilization effect on specimen: feces; conditions: for The number of viable bacteria in specimen: Feces 1.5 × 10^11/g
[3] = tested on: pus mainly including antibiotic resistant MRSA; conditions: Pus (MRSA) 4 × 10^9/g
[4] = tested on: pus mainly including antibiotic resistant Pseudomonas aeruginosa (MDRP); conditions: Pus (MDRP) 5 × 10^9/g
[5] = tested on: viable bacteria on skin surface; assay: Application on hand skin, swab method; assay type: in vivo; conditions: for The number of viable bacteria on skin surface, relative value: before application = 100
Protocol: The disinfectant prepared in Preparation Example 3 was applied. Immediately after that, an area of 10 cm^2 was wiped with sterile gauze that was immersed into sterile physiological saline. Then, the number of bacteria was counted (Swab method). Next, different areas each having an area of 10 cm^2 were wiped in the applied area after 15 minutes, after 30 minutes, and after 60 minutes, and the viability of bacteria on the skin was determined. As controls, tap water and 70% ethanol were used. The number of bacteria before the application of disinfectants is regarded as 100 and relative values are shown.

[6] = tested on: spores of Bacillus species; assay: Spore decay time and decay rate in dried soil, aerobic culture; assay type: cell-based; conditions: for Spore decay rate, Spores of Bacillus species: 1 g dried soil in 10 ml, aerobic culture
Protocol: (§1) Sands in a sandbox in a park and riverside soil were collected and mixed. The mixture was dried with heated air at 80 to 90° C. for 6 hours. Then, 1 g of the dried mixture was added into water and immediately filtered with a filter. A part of the filtrate was applied onto a glass slide, and spores were stained in a common procedure. The number of stained spores was counted and the number of spores contained in 1 g of soil was determined. Simultaneously, the spores were aerobically (Bacillus species proliferated) and anaerobically (Clostridium species proliferated) cultured, and each ratio was determined.
(§2) Then, into 10 ml of the sample disinfectant, 1 g of the dried soil was added. Some of the mixture was collected with time, and cultured aerobically and anaerobically. The number of growing colonies was counted to determine the decay rate of the spores.

[7] = tested on: spores of Clostridium species; assay: Spore decay time and decay rate in dried soil, anaerobic culture; assay type: cell-based; conditions: for Spore decay rate, Spores of Clostridium species: 1 g dried soil in 10 ml, anaerobic culture
Protocol: as §1, §2

E. coli O-157 [8] = assay: Metal ion or food preservative added to growth medium, viable count; assay type: cell-based; conditions: metal ion in growth medium
Protocol: (§3) To a standard medium for counting viable bacteria described below, each metal ion with varied concentration was added. […] Then, the number of viable bacteria was counted with time in a common procedure.
(§4) Sample bacteria: S. aureus 209P as a representative of Gram-positive bacteria • E. coli 0-157 as a representative of Gram-negative bacteria
(§5) Standard medium for counting viable bacteria: yeast extract 2.5 g, peptone 5 g, glucose 1 g, agar 15 g, pH 7.2

S. aureus 209P [9] = assay: as above; assay type: cell-based; conditions: metal ion in growth medium
Protocol: as §3, §4, §5

S. aureus 209P [10] = assay: 100% death time on contact with solution; assay type: cell-based
Text: Examples of the effect are shown below.

E. coli O-157 [11] = assay: 100% death time on contact with solution
[12] = tested on: viable bacteria in saliva; assay: Effect of gargle, viable bacteria in saliva; assay type: in vivo, persons; conditions: for number of viable bacteria in saliva, relative value: before gargle = 100, one value per person
Protocol: Next, the efficacy of the disinfectant was examined when it is used for a gargle. The number of viable bacteria was counted in 1 ml of saliva that was collected from each of three persons before a gargle. Then, each person gargled three times each for 20 seconds, that is, gargled for total of 1 minute, with the disinfectant of the present invention that was prepared in Preparation Example 6. Each saliva was collected immediately after the gargle and at 15 minutes, 30 minutes, and 60 minutes after the gargle. The number of viable bacteria was counted per 1 ml of the saliva, and the effect of gargle was determined. Here, the number of viable bacteria before gargle is regarded as 100, and relative values are shown.
As a control, each of two persons was gargled with tap water or 1000 ppm povidone-iodine in a similar way.

[13] = Cu^2+ 50 ppm + L-ascorbic acid 100 ppm
[14] = Cu^2+ 50 ppm + L-ascorbic acid 100 ppm + potassium sorbate 50 ppm
[15] = Cu^2+ 50 ppm + potassium sorbate 50 ppm
[16] = Cu^2+ 50 ppm + sodium lauryl sulfate 50 ppm
[17] = Cu^2+ 50 ppm + sodium lauryl sulfate 50 ppm + L-ascorbic acid 100 ppm
[18] = Cu^2+ 50 ppm + sodium lauryl sulfate 50 ppm + L-ascorbic acid 100 ppm + potassium sorbate 50 ppm

CCO [70% Ethanol, ethanol]
The number of viable bacteria in specimen ([1]; 5 min after addition): 1e+08 g⁻¹ | The number of viable bacteria in specimen ([1]; 15 min after addition): 2e+07 g⁻¹ | The number of viable bacteria in specimen ([1]; 30 min after addition): 6e+06 g⁻¹ | The number of viable bacteria in specimen ([1]; 60 min after addition): 5e+06 g⁻¹ | The number of viable bacteria in specimen ([1]; 60 min after addition, listed as 70% ethanol): 5e+06 g⁻¹ | The number of viable bacteria in specimen ([2]; 5 min after addition): 5e+06 g⁻¹ | The number of viable bacteria in specimen ([2]; 15 min after addition): 3000 g⁻¹ | The number of viable bacteria in specimen ([2]; 30 min after addition): 4e+10 g⁻¹ | The number of viable bacteria in specimen ([2]; 60 min after addition): 4e+16 g⁻¹ | effect on bacteria in feces ([2]; feces): only slightly decreased | The number of viable bacteria in specimen ([3]; 5 min after addition): 5e+07 g⁻¹ | The number of viable bacteria in specimen ([3]; 15 min after addition): 200000 g⁻¹ | The number of viable bacteria in specimen ([3]; 30 min after addition): 80000 g⁻¹ | The number of viable bacteria in specimen ([3]; 60 min after addition): 50000 g⁻¹ | The number of viable bacteria in specimen ([4]; 5 min after addition): 7e+07 g⁻¹ | The number of viable bacteria in specimen ([4]; 15 min after addition): 500000 g⁻¹ | The number of viable bacteria in specimen ([4]; 30 min after addition): 10000 g⁻¹ | The number of viable bacteria in specimen ([4]; 60 min after addition): 10000 g⁻¹ | number of bacteria on skin relative to before application ([5]; after 60 minutes): 45% | The number of viable bacteria on skin surface, relative value ([5]; after 15 min): 12 | The number of viable bacteria on skin surface, relative value ([5]; after 30 min): 20 | The number of viable bacteria on skin surface, relative value ([5]; after 60 min): 45 | The number of viable bacteria on skin surface, relative value ([5]; immediately after): 0 | The number of viable bacteria on skin surface, relative value ([5]; immediately after, listed as 70% ethanol): no bacteria was observed | effect on the spores [6]: no effect | Spore decay rate, Spores of Bacillus species ([6]; 1 min contact): 0% | Spore decay rate, Spores of Bacillus species ([6]; 5 min contact): 0% | Spore decay rate, Spores of Bacillus species ([6]; 10 min contact): 0% | Spore decay rate, Spores of Bacillus species ([6]; 30 min contact): 0% | Spore decay rate, Spores of Bacillus species ([6]; 60 min contact): 0% | Spore decay rate, Spores of Bacillus species ([6]; 120 min contact): 0% | effect on the spores [7]: no effect | Spore decay rate, Spores of Clostridium species ([7]; 1 min contact): 0% | Spore decay rate, Spores of Clostridium species ([7]; 5 min contact): 0% | Spore decay rate, Spores of Clostridium species ([7]; 10 min contact): 0% | Spore decay rate, Spores of Clostridium species ([7]; 30 min contact): 0% | Spore decay rate, Spores of Clostridium species ([7]; 60 min contact): 0% | Spore decay rate, Spores of Clostridium species ([7]; 120 min contact): 0%

O.O.O.O.O.O=S(=O)([O-])[O-].[Cu+2] [Cu^2+, CuSO4•5H2O]
(a) Antiproliferative activity, concentration (E. coli O-157 [8]): 5~30 ppm | (b) Bacteriostatic activity, concentration (E. coli O-157 [8]): 25~120 ppm | (c) Bactericidal activity, concentration (E. coli O-157 [8]): 100 ppm> | Acceleration of growth, concentration (E. coli O-157 [8]): 5 ppm< | (a) Antiproliferative activity, concentration (S. aureus 209P [9]): 10~50 ppm | (b) Bacteriostatic activity, concentration (S. aureus 209P [9]): 40~150 ppm | Acceleration of growth, concentration (S. aureus 209P [9]): 5 ppm< | 100% death time (S. aureus 209P [10]; [13]): 60 min | 100% death time (S. aureus 209P [10]; [14]): 50 min | 100% death time (S. aureus 209P [10]; [15]): 75 min | 100% death time (S. aureus 209P [10]; [16]): 1.5 min | 100% death time (S. aureus 209P [10]; [17]): 1 min | 100% death time (S. aureus 209P [10]; [18]): 0.75 min | 100% death time (S. aureus 209P [10]; Cu^2+ ion 50 ppm alone): 90 min | 100% death time (E. coli O-157 [11]; [13]): 60 min | 100% death time (E. coli O-157 [11]; [14]): 45 min | 100% death time (E. coli O-157 [11]; [15]): 70 min | 100% death time (E. coli O-157 [11]; [16]): 1 min | 100% death time (E. coli O-157 [11]; [17]): 1 min | 100% death time (E. coli O-157 [11]; [18]): 0.5 min | 100% death time (E. coli O-157 [11]; Cu^2+ ion 50 ppm alone): 90 min

OCl [Sodium hypochlorite, sodium hypochlorite]
The number of viable bacteria in specimen ([1]; 5 min after addition): 20000 g⁻¹ | The number of viable bacteria in specimen ([1]; 15 min after addition): 10000 g⁻¹ | The number of viable bacteria in specimen ([1]; 30 min after addition): 10000 g⁻¹ | The number of viable bacteria in specimen ([1]; 60 min after addition): 5000 g⁻¹ | The number of viable bacteria in specimen ([1]; 60 min after addition, listed as sodium hypochlorite): 5000 g⁻¹ | The number of viable bacteria in specimen ([2]; 5 min after addition): 1e+08 g⁻¹ | The number of viable bacteria in specimen ([2]; 15 min after addition): 8e+06 g⁻¹ | The number of viable bacteria in specimen ([2]; 30 min after addition): 8e+06 g⁻¹ | The number of viable bacteria in specimen ([2]; 60 min after addition): 1e+07 g⁻¹ | The number of viable bacteria in specimen ([2]; 60 min after addition, listed as hypochlorite): 1e+07 g⁻¹ | The number of viable bacteria in specimen ([3]; 5 min after addition): 30000 g⁻¹ | The number of viable bacteria in specimen ([3]; 15 min after addition): 500 g⁻¹ | The number of viable bacteria in specimen ([3]; 30 min after addition): 100 g⁻¹ | The number of viable bacteria in specimen ([3]; 60 min after addition): 0 g⁻¹ | The number of viable bacteria in specimen ([4]; 5 min after addition): 2000 g⁻¹ | The number of viable bacteria in specimen ([4]; 15 min after addition): 1000 g⁻¹ | The number of viable bacteria in specimen ([4]; 30 min after addition): 200 g⁻¹ | The number of viable bacteria in specimen ([4]; 60 min after addition): 100 g⁻¹ | Spore decay rate, Spores of Bacillus species ([6]; 1 min contact): 0% | Spore decay rate, Spores of Bacillus species ([6]; 5 min contact): 0% | Spore decay rate, Spores of Bacillus species ([6]; 10 min contact): 10% | Spore decay rate, Spores of Bacillus species ([6]; 30 min contact): 30% | Spore decay rate, Spores of Bacillus species ([6]; 60 min contact): 100% | spores decayed ([6]; 60 minutes contact): 100% | Spore decay rate, Spores of Bacillus species ([6]; 120 min contact): 100% | Spore decay rate, Spores of Clostridium species ([7]; 1 min contact): 0% | Spore decay rate, Spores of Clostridium species ([7]; 5 min contact): 5% | Spore decay rate, Spores of Clostridium species ([7]; 10 min contact): 20% | Spore decay rate, Spores of Clostridium species ([7]; 30 min contact): 30% | Spore decay rate, Spores of Clostridium species ([7]; 60 min contact): 100% | spores decayed ([7]; 60 minutes contact): 100% | Spore decay rate, Spores of Clostridium species ([7]; 120 min contact): 100%

povidone-iodine
number of bacteria in saliva relative to before gargle ([12]; after 60 minutes): 30 to 40% | number of viable bacteria in saliva, relative value ([12]; after 15 min): 5 and 8 | number of viable bacteria in saliva, relative value ([12]; after 30 min): 18 and 20 | number of viable bacteria in saliva, relative value ([12]; after 60 min): 30 and 40 | number of viable bacteria in saliva, relative value ([12]; immediately after gargle): 2 | number of bacteria in saliva relative to before gargle ([12]; immediately after the gargle): 2%
